Laboratory results reported in US10544106B2, “Certain chemical entities, compositions, and methods” (NeuPharma, Inc., priority 2016, dated 2020).
pIC50: −log10 of the molar value.

Assays:
[1] = target: EGFR del746_750 (Homo sapiens (Human), UniProt P00533, DEL746-750); assay: SelectScreen Lantha method (Eu-anti-GST antibody/tracer) for EGFR del746_750; assay type: binding; conditions: compound at 100 nM; read-out: % Inhibition against EGFR del745_750
Protocol: SelecteScreen's Lantha® method from Life Technologies was used to measure compound's activities in inhibition of EGFR del746_750.
Test Compounds are screened in 1% DMSO (final) in the well. For 10 point titrations, 3-fold serial dilutions are conducted from the starting concentration. • Components for EGFR del745_750: • Kinase Buffer A: 50 mM HEPES pH 7.5, 0.01% BRIJ-35, 10 mM MgCl2, 1 mM EGTA • Kinase/Antibody Mixtures for EGFR del745_ 750: EGFR del745_ 750 10 nM, Antibody: Eu-anti-GST 2 nM, Tracer 199 10 nM, Inhibitor: SB202190 88.2 nM, All Kinase/Antibody Mixtures are diluted to a 2× working concentration in the appropriate Kinase Buffer • Tracer: The 4× AlexaFluor® labeled Tracer is prepared in Kinase Buffer.
To start the measurement, the following components are added to individual wells of bar-coded, low volume, white 384-well plate (Greiner Cat. #784207): • 1. 160 nL—100× Test Compound in 100% DMSO. • 2. 3.84 μL—Kinase Buffer: • 3. 8.0 μL—2× Kinase/Antibody Mixture • 4. 4.0 μL—4× Tracer The mixture above is then shaken for 30-second following by 60-minute incubation at room temperature. Finally the plate is read on fluorescence plate reader.
(§1) The Z′-LYTE assay was carried out with ATP concentration at Km. The scale utilized in Tables 2-6 is as follows: ++ more than 50% inhibition and + less than 50% inhibition.

[2] = target: EGFR (ErbB1) L858R (Homo sapiens (Human), UniProt P00533, L858R); assay: Z'-LYTE kinase inhibition assay against EGFR L858R; assay type: biochemical; conditions: compound at 100 nM; ATP concentration at Km
Chain of EGFR (ErbB1) L858R (P00533 25-1210 L858R): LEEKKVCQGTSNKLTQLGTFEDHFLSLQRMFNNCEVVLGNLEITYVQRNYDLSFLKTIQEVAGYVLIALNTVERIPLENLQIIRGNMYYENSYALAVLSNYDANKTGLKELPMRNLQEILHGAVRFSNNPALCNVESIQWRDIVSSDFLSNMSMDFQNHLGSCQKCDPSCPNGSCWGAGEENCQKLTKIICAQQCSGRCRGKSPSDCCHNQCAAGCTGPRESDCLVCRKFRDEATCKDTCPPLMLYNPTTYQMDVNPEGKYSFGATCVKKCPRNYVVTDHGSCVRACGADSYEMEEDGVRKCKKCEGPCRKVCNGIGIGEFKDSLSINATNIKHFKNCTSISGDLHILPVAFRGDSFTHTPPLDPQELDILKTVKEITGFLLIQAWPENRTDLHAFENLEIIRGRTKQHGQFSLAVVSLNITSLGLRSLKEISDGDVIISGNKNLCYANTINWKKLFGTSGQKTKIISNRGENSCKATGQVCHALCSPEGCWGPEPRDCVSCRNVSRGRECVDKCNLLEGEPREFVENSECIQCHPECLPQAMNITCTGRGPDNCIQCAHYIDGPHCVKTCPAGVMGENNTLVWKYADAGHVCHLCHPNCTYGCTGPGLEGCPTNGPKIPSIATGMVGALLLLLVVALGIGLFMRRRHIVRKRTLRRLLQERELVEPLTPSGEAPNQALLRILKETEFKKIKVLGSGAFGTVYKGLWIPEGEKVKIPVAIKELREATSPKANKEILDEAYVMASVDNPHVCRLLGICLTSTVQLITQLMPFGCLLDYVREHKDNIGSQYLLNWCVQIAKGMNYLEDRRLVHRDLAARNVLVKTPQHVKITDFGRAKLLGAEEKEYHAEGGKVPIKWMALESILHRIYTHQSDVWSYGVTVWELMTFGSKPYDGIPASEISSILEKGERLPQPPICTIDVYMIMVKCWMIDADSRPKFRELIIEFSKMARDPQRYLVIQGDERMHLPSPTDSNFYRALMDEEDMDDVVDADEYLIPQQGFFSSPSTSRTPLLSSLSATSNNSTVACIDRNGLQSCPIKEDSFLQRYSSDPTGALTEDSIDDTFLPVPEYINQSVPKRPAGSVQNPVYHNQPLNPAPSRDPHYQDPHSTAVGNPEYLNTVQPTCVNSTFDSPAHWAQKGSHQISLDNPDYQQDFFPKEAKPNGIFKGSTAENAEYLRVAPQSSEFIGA
Protocol: (§2) Inhibitory activities of compounds against BTK, EGFR T790M, EGFR L858R, and EGFR L858R/T790M were measured using Z′-LYTE® Method from Life Technologies as briefly described in the following.
(§3) Test Compounds are screened in 1% DMSO (final) in the well. For 10 point titrations, 3-fold serial dilutions are conducted from the starting concentration. All ATP Solutions are diluted to a 4× working concentration in Kinase Buffer (50 mM HEPES pH 7.5, 0.01% BRIJ-35, 10 mM MgCl2, 1 mM EGTA). Peptide/Kinase Mixtures are diluted to a 2× working concentration in the appropriate Kinase Buffers as described below. • (i) Peptide/Kinase Mixtures for measurement of EGFR (ErbB1) L858R: • The 2×EGFR (ErbB1) L858R/Tyr 04 mixture is prepared in 50 mM HEPES pH 7.5, 0.01% BRIJ-35, 10 mM MgCl2, 4 mM MnCl2. 1 mM EGTA, 2 mM DTT. The final 10 μL Kinase Reaction consists of 0.2-1.68 ng EGFR (ErbB1) L858R and 2 μM Tyr 04 in 50 mM HEPES pH 7.5, 0.01% BRIJ-35, 10 mM MgCl2, 2 mM MnCl2, 1 mM EGTA, 1 mM DTT. After the 1 hour Kinase Reaction incubation, 5 μL of a 1:64 dilution of Development Reagent B is added. • (ii) Peptide/Kinase Mixtures for measurement of EGFR (ErbB1) T790M: The 2×EGFR (ErbB1) T790M/Tyr 04 mixture is prepared in 50 mM HEPES pH 6.5, 0.01% BRIJ-35, 10 mM MgCl2, 1 mM EGTA, 0.02% NaN3. The final 10 μL Kinase Reaction consists of 3.9-30.2 ng EGFR (ErbB1) T790M and 2 μM Tyr 04 in 50 mM HEPES pH 7.0, 0.01% BRIJ-35, 10 mM MgCl2, 1 mM EGTA, 0.01% NaN3. After the 1 hour Kinase Reaction incubation, 5 μL of a 1:64 dilution of Development Reagent B is added. • (iii) Peptide/Kinase Mixtures for measurement of EGFR (ErbB1) L858R/T790M: The 2×EGFR (ErbB1) T790M L858R/Tyr 04 mixture is prepared in 50 mM HEPES pH 6.5, 0.01% BRIJ-35, 10 mM MgCl2, 1 mM EGTA, 0.02% NaN3. The final 10 μL Kinase Reaction consists of 0.38-4.22 ng EGFR (ErbB1) T790M L858R and 2 μM Tyr 04 in 50 mM HEPES pH 7.0, 0.01% BRIJ-35, 10 mM MgCl2, 1 mM EGTA, 0.01% NaN3. After the 1 hour Kinase Reaction incubation, 5 μL of a 1:64 dilution of Development Reagent B is added. • (iv) Peptide/Kinase Mixtures for measurement of BTK: The 2×BTK/Tyr 01 mixture is prepared in 50 mM HEPES pH 7.5, 0.010/BRIJ-35, 10 mM MgCl2, 1 mM EGTA. The final 10 μL Kinase Reaction consists of 1.04-10.4 ng BTK and 2 μM Tyr 01 in 50 mM HEPES pH 7.5, 0.01% BRIJ-35, 10 mM MgCl2, 1 mM EGTA. After the 1 hour Kinase Reaction incubation, 5 μL of a 1:256 dilution of Development Reagent B is added.
(§4) Reaction starts by 30-second shaking of mixture consisting of 2.5 μL 4× test compound, 5 μL 2× kinase reaction mixture and 2.5 μL 4×ATP Solution on Bar-coded Corning, low volume NBS, black 384-well plate (Corning Cat. #3676). Then the mixture is incubated for 60-minute at room temperature for the kinase reaction, followed by addition of 5 μL of a 1:1024 dilution of development reagent A and 30-second plate shake. The mixture is then incubated for another 60-minute at room temperature for development reaction. Finally fluorescence is read by plate reader.
as §1

[3] = target: BTK (Homo sapiens (Human), UniProt Q06187); assay: Z'-LYTE kinase inhibition assay against BTK; assay type: biochemical; conditions: for inhibition at 0.1 µM: compound at 100 nM, ATP concentration at Km; for pIC50: series of concentrations, GraphPad Prism 5
Chain of BTK (Q06187 whole entry): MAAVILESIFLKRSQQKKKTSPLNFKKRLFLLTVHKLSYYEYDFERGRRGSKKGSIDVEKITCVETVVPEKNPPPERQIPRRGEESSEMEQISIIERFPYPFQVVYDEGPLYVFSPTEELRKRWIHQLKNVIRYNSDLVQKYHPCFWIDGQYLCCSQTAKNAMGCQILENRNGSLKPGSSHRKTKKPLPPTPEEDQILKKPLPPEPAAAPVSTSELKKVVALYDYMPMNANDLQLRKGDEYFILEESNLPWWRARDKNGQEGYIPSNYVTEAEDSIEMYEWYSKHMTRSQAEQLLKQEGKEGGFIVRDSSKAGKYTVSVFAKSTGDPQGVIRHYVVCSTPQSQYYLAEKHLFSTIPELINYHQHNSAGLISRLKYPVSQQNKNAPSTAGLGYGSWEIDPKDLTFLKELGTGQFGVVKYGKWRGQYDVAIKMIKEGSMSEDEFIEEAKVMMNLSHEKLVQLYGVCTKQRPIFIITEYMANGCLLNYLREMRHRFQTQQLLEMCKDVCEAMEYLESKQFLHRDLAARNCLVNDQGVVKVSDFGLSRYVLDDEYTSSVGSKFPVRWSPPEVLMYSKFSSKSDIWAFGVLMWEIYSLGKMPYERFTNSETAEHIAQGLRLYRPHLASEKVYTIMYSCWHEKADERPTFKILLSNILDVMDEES
Summary of the method: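 Z′-LYTE FRET readout: 1.04-10.4 ng BTK with 2 μM Tyr 01 peptide, ATP at Km, in 50 mM HEPES pH 7.5, 10 mM MgCl2, 1 mM EGTA, 0.01% BRIJ-35, 1% DMSO. 60 min kinase reaction at room temperature, then 60 min development; IC50 from 10-point, 3-fold titrations.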

[4] = target: EGFR (ErbB1) T790M (Homo sapiens (Human), UniProt P00533, T790M); assay: Z'-LYTE kinase inhibition assay against EGFR T790M; assay type: biochemical; conditions: compound at 100 nM; ATP concentration at Km
Chain of EGFR (ErbB1) T790M (P00533 25-1210 T790M): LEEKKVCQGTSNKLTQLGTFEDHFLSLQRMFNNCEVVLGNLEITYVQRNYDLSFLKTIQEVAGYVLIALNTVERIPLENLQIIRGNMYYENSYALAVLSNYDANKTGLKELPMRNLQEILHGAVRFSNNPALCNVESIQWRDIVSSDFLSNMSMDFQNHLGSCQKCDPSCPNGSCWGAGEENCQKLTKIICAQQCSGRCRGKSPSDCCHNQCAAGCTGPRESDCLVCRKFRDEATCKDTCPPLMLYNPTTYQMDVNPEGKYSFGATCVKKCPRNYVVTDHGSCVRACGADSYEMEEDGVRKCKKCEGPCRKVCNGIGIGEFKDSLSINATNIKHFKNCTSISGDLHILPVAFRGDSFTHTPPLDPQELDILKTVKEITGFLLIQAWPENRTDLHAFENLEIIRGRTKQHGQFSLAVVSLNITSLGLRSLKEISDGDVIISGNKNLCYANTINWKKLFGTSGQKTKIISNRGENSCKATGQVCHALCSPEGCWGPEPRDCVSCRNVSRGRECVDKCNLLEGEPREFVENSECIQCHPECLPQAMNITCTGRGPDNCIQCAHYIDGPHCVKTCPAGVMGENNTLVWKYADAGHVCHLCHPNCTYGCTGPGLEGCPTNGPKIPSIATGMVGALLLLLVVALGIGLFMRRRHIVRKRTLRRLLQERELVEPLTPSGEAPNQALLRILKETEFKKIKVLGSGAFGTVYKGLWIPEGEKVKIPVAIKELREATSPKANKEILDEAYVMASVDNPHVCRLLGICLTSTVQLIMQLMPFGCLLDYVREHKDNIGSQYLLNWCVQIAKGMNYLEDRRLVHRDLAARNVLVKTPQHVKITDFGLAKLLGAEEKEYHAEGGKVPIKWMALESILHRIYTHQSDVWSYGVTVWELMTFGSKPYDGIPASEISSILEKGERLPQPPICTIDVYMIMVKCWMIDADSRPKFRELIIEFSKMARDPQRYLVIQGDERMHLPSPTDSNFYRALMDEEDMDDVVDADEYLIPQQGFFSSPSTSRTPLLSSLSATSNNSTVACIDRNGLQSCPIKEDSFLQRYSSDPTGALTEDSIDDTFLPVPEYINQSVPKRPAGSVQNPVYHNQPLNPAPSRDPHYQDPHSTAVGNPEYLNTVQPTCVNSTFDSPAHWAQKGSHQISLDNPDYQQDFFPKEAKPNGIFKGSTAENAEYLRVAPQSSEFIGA
Protocol: as §2, §3, §4, §1

[5] = target: EGFR (ErbB1) L858R/T790M (Homo sapiens (Human), UniProt P00533, L858R/T790M); assay: Z'-LYTE kinase inhibition assay against EGFR L858R/T790M; assay type: biochemical; conditions: compound at 100 nM; ATP concentration at Km
Chain of EGFR (ErbB1) L858R/T790M (P00533 25-1210 T790M/L858R): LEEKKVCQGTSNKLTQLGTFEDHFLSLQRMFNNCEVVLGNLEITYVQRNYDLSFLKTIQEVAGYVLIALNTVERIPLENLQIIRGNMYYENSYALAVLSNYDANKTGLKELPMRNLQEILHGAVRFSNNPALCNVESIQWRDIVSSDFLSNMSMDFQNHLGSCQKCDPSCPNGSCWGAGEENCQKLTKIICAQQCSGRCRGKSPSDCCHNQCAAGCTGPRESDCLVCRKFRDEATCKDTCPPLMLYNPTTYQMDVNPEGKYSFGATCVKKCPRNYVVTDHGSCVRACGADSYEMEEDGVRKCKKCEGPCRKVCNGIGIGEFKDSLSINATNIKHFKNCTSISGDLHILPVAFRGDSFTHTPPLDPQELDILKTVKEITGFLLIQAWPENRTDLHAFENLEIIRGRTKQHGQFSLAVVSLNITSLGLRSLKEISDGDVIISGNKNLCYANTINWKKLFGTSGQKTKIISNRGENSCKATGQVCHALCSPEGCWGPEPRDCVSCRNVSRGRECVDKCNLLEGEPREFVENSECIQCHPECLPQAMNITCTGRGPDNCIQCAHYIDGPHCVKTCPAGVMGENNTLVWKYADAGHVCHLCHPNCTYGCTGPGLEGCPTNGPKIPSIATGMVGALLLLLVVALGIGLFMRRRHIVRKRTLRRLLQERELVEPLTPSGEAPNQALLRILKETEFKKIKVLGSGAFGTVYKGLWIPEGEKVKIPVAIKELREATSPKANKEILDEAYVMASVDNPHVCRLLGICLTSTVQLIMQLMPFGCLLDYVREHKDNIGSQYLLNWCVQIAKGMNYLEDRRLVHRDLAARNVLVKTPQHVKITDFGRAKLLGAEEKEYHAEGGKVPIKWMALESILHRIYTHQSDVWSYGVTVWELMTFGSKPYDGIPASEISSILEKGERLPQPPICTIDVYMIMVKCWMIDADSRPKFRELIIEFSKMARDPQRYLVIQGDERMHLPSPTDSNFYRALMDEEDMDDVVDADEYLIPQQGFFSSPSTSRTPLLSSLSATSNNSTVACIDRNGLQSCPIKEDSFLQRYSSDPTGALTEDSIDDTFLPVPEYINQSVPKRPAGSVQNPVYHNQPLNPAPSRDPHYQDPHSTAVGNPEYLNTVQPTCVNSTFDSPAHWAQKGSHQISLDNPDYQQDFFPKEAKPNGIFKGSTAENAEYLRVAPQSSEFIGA
Protocol: as §2, §3, §4, §1

[6] = tested on: OCI-Ly10 cells; assay: OCI-Ly10 cell proliferation assay (Alamar Blue, 72 hours); assay type: cell-based; conditions: Homo sapiens
Protocol: OCI-Ly10 cells were cultured in Iscove's DMEM supplemented with 20% fetal bovine serum and 1× penicillin/streptomycin/glutamine. The cells were maintained in T175 flasks under 5% CO2 in a 37 ° C. humidified incubator for 5 days prior to plating and assay.
Cells were pooled by centrifugation (200 ref, 8 minutes) and resuspended in fresh medium to a concentration of 2.00E+05 cells/ml. 200 µl of the cell suspension was added to each well (40,000 cells/well) of a black-walled 96 well plate to which 1 μl of compound (n=3 per concentration) in 100% DMSO (0.5% final concentration) was added per well. Vehicle and cell free wells were also included in the assay. The dosed cells were cultured under normal conditions for 72 hours.
Cell proliferation is measured using the dye Alamar Blue (resazurin). Resazurin is reduced to resorufin by cellular enzymes and is fluorescent (544 nm excitation, 612 nm emission). Fluorescence intensity is proportional to cell number. Resazurin was prepared in PBS to a stock concentration of 440 μM. 40 μl of the 440 μM resazurin stock solution was added 3 hours prior to the 72 hour termination of the assay. The plate was returned to normal culture conditions and fluorescence measurements were collected using a Cytation3 multimode plate reader (Biotek) at 72 hours.
The scale utilized in Table 8 is as follows: ++ less than 50 nM and + greater than 50 nM.

SMILES | inhibition at 0.1 µM [1] [%] | inhibition at 0.1 µM [2] [%] | inhibition at 0.1 µM [3] [%] | pIC50 [3] | inhibition at 0.1 µM [4] [%] | inhibition at 0.1 µM [5] [%] | pIC50 [6]
C=CC(=O)N1CCCC(c2cc(-c3ccc(C)nc3)cc3cnc(N)nc23)C1 (stereo not drawn) [C042, 1-(3-(2-amino-6-(6-methylpyridin-3-yl)quinazolin-8-yl)piperidin-1-yl)prop-2-en-1-one] | < 50 | < 50 | < 50 |  | < 50 | < 50 | 
C=CC(=O)N1CCC(c2cc(-c3ccc(C(=O)Nc4cc(Cl)ccn4)cc3)n3cnccc23)C1 (stereo not drawn) [C064, 4-(5-(1-acryloylpyrrolidin-3-yl)pyrrolo[1,2-c]pyrimidin-7-yl)-N-(4-chloropyridin-2-yl)benzamide] |  | < 50 | > 50 | > 7.00 | < 50 | < 50 | 
C=CC(=O)Nc1cccc(-c2cc(-c3cccc(F)c3)cc3cncnc23)c1 [C073, N-(3-(6-(3-fluorophenyl)quinazolin-8-yl)phenyl)acrylamide] | > 50 | > 50 | > 50 | > 7.00 | < 50 | < 50 | 
C=CC(=O)Nc1cccc(-c2cc(-c3ccccc3)cc3cnc(Nc4ccccc4)nc23)c1 [C074, N-(3-(6-phenyl-2-(phenylamino)quinazolin-8-yl)phenyl)acrylamide] | > 50 | > 50 | > 50 | > 7.00 | < 50 | < 50 | 
C=CC(=O)Nc1cccc(-c2cc(-c3cccnc3)cc3cnc(Nc4ccccc4)nc23)c1 [C076, N-(3-(2-(phenylamino)-6-(pyridin-3-yl)quinazolin-8-yl)phenyl)acrylamide] | > 50 | > 50 | > 50 | > 7.00 | < 50 | < 50 | 

Continued, values first:

inhibition at 0.1 µM [1] [%] | inhibition at 0.1 µM [2] [%] | inhibition at 0.1 µM [3] [%] | pIC50 [3] | inhibition at 0.1 µM [4] [%] | inhibition at 0.1 µM [5] [%] | pIC50 [6] | SMILES
> 50 | > 50 | > 50 | > 7.00 | < 50 | < 50 |  | C=CC(=O)Nc1cccc(-c2cc(-c3ccccc3Cl)cc3cnc(N)nc23)c1 [C003, N-(3-(2-amino-6-(2-chlorophenyl)quinazolin-8-yl)phenyl)acrylamide]
< 50 | < 50 | > 50 | > 7.00 | < 50 | < 50 | > 7.30 | C=CC(=O)Nc1cccc(-c2cc(-c3ccc(C(=O)Nc4ccccn4)cc3)cc3cncnc23)c1 [C008, 4-(8-(3-acrylamidophenyl)quinazolin-6-yl)-N-(pyridin-2-yl)benzamide]
> 50 | > 50 | > 50 | > 7.00 | < 50 | < 50 |  | C=CC(=O)Nc1cccc(-c2cc(-c3ccccc3Cl)cc3cncnc23)c1 [C013, N-(3-(6-(2-chlorophenyl)quinazolin-8-yl)phenyl)acrylamide]
> 50 | > 50 | > 50 | > 7.00 | > 50 | > 50 |  | C=CC(=O)Nc1cccc(-c2cc(-c3ccc(C(=O)Nc4cccc(C(F)(F)F)c4)cc3)cc3cncnc23)c1 [C051, 4-(8-(3-acrylamidophenyl)quinazolin-6-yl)-N-(3-(trifluoromethyl)phenyl)benzamide]
< 50 | < 50 | > 50 | > 7.00 | < 50 | < 50 | > 7.30 | C=CC(=O)Nc1cccc(-c2cc(-c3ccc(C(=O)Nc4ccccn4)cc3Cl)cc3cncnc23)c1 [C052, 4-(8-(3-acrylamidophenyl)quinazolin-6-yl)-3-chloro-N-(pyridin-2-yl)benzamide]
